From patent US4070473A, “Piperidino-butyrophenones” (AB Ferrosan, priority 1973, dated 1978)
Counter-ions that a name gives are not always drawn. Like-named read-outs stand apart in the source and are kept apart here.

Tests used:
[1] = system: exploratory behaviour, mice; assay: Inhibition of climbing in mice (inhibition of exploratory behaviour) (Test 2); assay type: in vivo; details: Mus musculus, sc, read-out: Inhibition of exploratory behaviour, mice ED50
Text: 2. Inhibition of climbing in mice (inhibition of exploratory behaviour).
2. Sandberg, S. in Arzneimittelforschung, 9, 203 (1958)

[2] = Cataleptogenic effect in rats (measure of the extrapyramidal side effects) (Test 4); assay type: in vivo; details: rat, in vivo, sc
Text: (§1) 4. Cataleptogenic effect in rats (measure of the extrapyramidal side effects).
(§2) 4. Stille, G. in Schweiz.

[3] = system: Amphetamine antagonism, rats; assay: Amphetamine antagonism in rats (antipsychotic effect) (Test 3); assay type: in vivo; details: for ED50: Rattus norvegicus, sc, read-out: Amphetamine antagonism, rats ED50; for activity in Test 3 (amphetamine antagonism; antipsychotic/anxiolytic effect), in words: Table-Test No. 3
Text: 3. Amphetamine antagonism in rats (antipsychotic effect).
3. Randrup, A. et al. in Acta Pharmacol. (Kph), 20, 145 (1963)

[4] = system: conditioned avoidance response, rats; assay: Inhibition of conditioned behaviour (conditioned avoidance response) in rats (Test 5); assay type: in vivo; details: Rattus norvegicus, sc, read-out: Inhibition of conditioned avoidance response, rats ED50
Text: 5. Inhibition of conditioned behaviour in rats. These tests were in accord with published test procedures and protocols, for instance: 5.

[5] = system: aggressive behaviour in male mice; assay: Inhibition of aggressive behaviour in male mice (Test 1); assay type: in vivo; details: for ED50: Mus musculus, sc, read-out: Inhibition of agression, mice ED50
Text: Methylperon -- formula hereinbefore mentioned (R3 = H; R4 = CH3) chlorpromazine [drawing 23] in each of the following established standard tests: 1. Inhibition of aggressive behaviour in male mice.
1. Valzelli, L. in Aggressive Behaviour, Eds. Garattini and Sigg, p. 70 (1969)

[6] = Toxicity, subcutaneously on mice; details: mouse, in vivo, sc
Text: The antipsychotic effect as shown in Test No. 3 is further confirmed by the blocking of apomorphine emesis in dogs. Ref: Janssen, P. A. J. et al. Arzneimittelforschung, 1, 1196 (1965) Furthermore, the compounds have a pronounced serotonine inhibiting effect, Ref: Alps, J. et al. Br. J. Pharmac. 44, 52 (1972) and a strong anti-inflammatory effect (measured with carrageenin-induced edema in rats). Ref: Takashima, T. et al. Arzneimittelforschung 22, 711 (1972) Their toxicity is rather low, 200 - 300 mg/kg. In comparison, the toxicity for haloperidol is 70 mg/kg and for methylperon is 280 mg/kg (all toxicities being performed subcutaneously on mice).

[7] = system: Cataleptogenic effect, rats; assay: Cataleptogenic effect in rats (measure of the extrapyramidal side effects) (Test 4); assay type: in vivo; details: rats, Table-Test No. 4
Text: as §1, §2

[8] = rats, s.c., measure of the extrapyramidal side effects, read-out: Cataleptogenic effect, rats ED50

CCOC1(C)CCN(CCCC(=O)c2ccc(F)cc2)CC1 [Example 2]
ED50 ([1]; mice, s.c.): 1 mg/kg
ED50 [2, 8]: 6 mg/kg
ED50 ([3]; rats, s.c.): 0.1 mg/kg
ED50 ([4]; rats, s.c.): 1.3 mg/kg
ED50 ([5]; mice, s.c.): 0.7 mg/kg

CCCC1(OC)CCN(CCCC(=O)c2ccc(F)cc2)CC1 [Example 8]
ED50 ([1]; mice, s.c.): 3.1 mg/kg
ED50 [2, 8]: 6.2 mg/kg
ED50 ([3]; rats, s.c.): 1 mg/kg
ED50 ([4]; rats, s.c.): 5.5 mg/kg
ED50 ([5]; mice, s.c.): 0.5 mg/kg

CCCCCC1(OCC)CCN(CCCC(=O)c2ccc(F)cc2)CC1 [Example 13]
ED50 ([1]; mice, s.c.): 1.3 mg/kg
ED50 [2, 8]: 6.8 mg/kg
ED50 ([3]; rats, s.c.): 0.35 mg/kg
ED50 ([5]; mice, s.c.): 0.5 mg/kg

CCCOC1(CC)CCN(CCCC(=O)c2ccc(F)cc2)CC1 [Example 7]
ED50 ([1]; mice, s.c.): 1.2 mg/kg
ED50 [2, 8]: 6 mg/kg
ED50 ([3]; rats, s.c.): 0.35 mg/kg
ED50 ([5]; mice, s.c.): 0.7 mg/kg

CCCCC1(OCC)CCN(CCCC(=O)c2ccc(F)cc2)CC1 [Example 12]
ED50 ([1]; mice, s.c.): 1.6 mg/kg
ED50 [2, 8]: 3 mg/kg
ED50 ([3]; rats, s.c.): 0.07 mg/kg
ED50 ([4]; rats, s.c.): 5 mg/kg
ED50 ([5]; mice, s.c.): 0.35 mg/kg

CC1CCN(CCCC(=O)c2ccc(F)cc2)CC1 [Methylperon, reference compound]
ED50 ([1]; mice, s.c.): 2 mg/kg
ED50 [2]: 12 mg/kg
ED50 ([3]; rats, s.c.): 3.5 mg/kg
activity in Test 3 (amphetamine antagonism; antipsychotic/anxiolytic effect), in words [3]: not very active
LD50 [6]: 280 mg/kg
ED50 ([4]; rats, s.c.): 6.8 mg/kg
ED50 ([5]; mice, s.c.): 2.2 mg/kg
activity in Test 1 (antiaggressive), in words ([5]; Table-Test No. 1): not very active

CCOC1(CC)CCN(CCCC(=O)c2ccc(F)cc2)CC1 [Example 6, gamma-(4-ethyl-4-ethoxypiperidino)-p-fluoro-4-butyrophenone hydrochloride]
ED50 ([1]; mice, s.c.): 1.4 mg/kg
ED50 [2, 8]: 5 mg/kg
ED50 ([3]; rats, s.c.): 0.1 mg/kg
ED50 ([4]; rats, s.c.): 1.5 mg/kg
ED50 ([5]; mice, s.c.): 0.08 mg/kg

CCC1(OC)CCN(CCCC(=O)c2ccc(F)cc2)CC1 [Example 5]
ED50 ([1]; mice, s.c.): 0.7 mg/kg
ED50 [2, 8]: 10 mg/kg
ED50 ([3]; rats, s.c.): 0.1 mg/kg
ED50 ([4]; rats, s.c.): 1.5 mg/kg
ED50 ([5]; mice, s.c.): 0.7 mg/kg

CN(C)CCCN1c2ccccc2Sc2ccc(Cl)cc21 [Chlorpromazine, reference compound]
ED50 [1]: 0.75 mg/kg
ED50 [2, 8]: 4.5 mg/kg
ED50 [3]: 1.2 mg/kg
activity in Test 3 (amphetamine antagonism; antipsychotic/anxiolytic effect), in words [3]: not very active
ED50 [4]: 4.5 mg/kg
ED50 [5]: 0.4 mg/kg

COC1(C)CCN(CCCC(=O)c2ccc(F)cc2)CC1 [Example 1, gamma-(4-methyl-4-methoxy-piperidino)-p-fluorobutyrophenone]
ED50 ([1]; mice, s.c.): 0.65 mg/kg
ED50 [2, 8]: 10 mg/kg
ED50 ([3]; rats, s.c.): 0.35 mg/kg
ED50 ([4]; rats, s.c.): 0.6 mg/kg
ED50 ([5]; mice, s.c.): 0.2 mg/kg

CCCOC1(C)CCN(CCCC(=O)c2ccc(F)cc2)CC1 [Example 3]
ED50 ([1]; mice, s.c.): 1 mg/kg
ED50 [2, 8]: 7 mg/kg
ED50 ([3]; rats, s.c.): 0.2 mg/kg
ED50 ([4]; rats, s.c.): 0.5 mg/kg
ED50 ([5]; mice, s.c.): 0.35 mg/kg

CCCCOC1(C)CCN(CCCC(=O)c2ccc(F)cc2)CC1.Cl [Example 4, gamma-(4-methyl-4-butoxypiperidino)-p-fluorobutyrophenone hydrochloride]
ED50 ([1]; mice, s.c.): 2 mg/kg
ED50 [2, 8]: 20 mg/kg
ED50 ([3]; rats, s.c.): 0.75 mg/kg
ED50 ([4]; rats, s.c.): 2.5 mg/kg
ED50 ([5]; mice, s.c.): 0.35 mg/kg

O=C(CCCN1CCC(O)(c2ccc(Cl)cc2)CC1)c1ccc(F)cc1 [Haloperidol, reference compound]
ED50 [1]: 1.3 mg/kg
extrapyramidal / cataleptogenic effect, in words [7]: pronounced cataleptogenic effect in rats
ED50 [2, 8]: 0.27 mg/kg
ED50 [3]: 0.03 mg/kg
LD50 [6]: 70 mg/kg
ED50 [4]: 0.15 mg/kg
ED50 [5]: 0.8 mg/kg

COC1(C(C)C)CCN(CCCC(=O)c2ccc(F)cc2)CC1.Cl [Example 10, gamma-(4-isopropyl-4-methoxy-piperidino)-p-fluorobutyrophenone hydrochloride]
ED50 ([1]; mice, s.c.): 1.1 mg/kg
ED50 [2, 8]: 5 mg/kg
ED50 ([3]; rats, s.c.): 0.1 mg/kg
ED50 ([4]; rats, s.c.): 1.2 mg/kg
ED50 ([5]; mice, s.c.): 0.15 mg/kg
